Test results taken from the CheMixHub ionic liquid set.

Test: xn = mol fraction of the nth substance listed

CCCC[n+]1ccccc1.O=S(=O)([O-])C(F)(F)F + O
298.15 K, 101 kPa
Conditions	electrical conductivity [S/m]
x1 = 0.000164	0.071
x1 = 0.0004107	0.156
x1 = 0.0005313	0.208
x1 = 0.0007077	0.277
x1 = 0.0008912	0.323
x1 = 0.001062	0.395
x1 = 0.001253	0.46
x1 = 0.001353	0.501
x1 = 0.001468	0.53
x1 = 0.001598	0.586
x1 = 0.001845	0.651
x1 = 0.001955	0.674
x1 = 0.002188	0.732
x1 = 0.002246	0.746
x1 = 0.002362	0.777
x1 = 0.002429	0.785
x1 = 0.002452	0.795
x1 = 0.002604	0.836
x1 = 0.002771	0.869
x1 = 0.00288	0.909
x1 = 0.003079	0.96

CCCC[n+]1ccn(C)c1.[Br-] + C[NH2+]CCC=C1c2ccccc2CCc2ccccc21.[Cl-] + O
viscosity [mPa·s], 100 kPa
Conditions	288.15 K	298.15 K	308.15 K	318.15 K
x2 = 0, x1 = 0.0001802	1.149	0.916	0.751	0.634
x2 = 0, x1 = 0.0007203	1.153	–	–	0.64
x2 = 0, x1 = 0.00126	1.159	0.93	0.763	0.646

CCCC[n+]1ccccc1C.F[B-](F)(F)F + O
298.15 K, 101 kPa
Conditions	electrical conductivity [S/m]
x1 = 0.0002702	0.13
x1 = 0.0004161	0.188
x1 = 0.0005097	0.233
x1 = 0.0007329	0.319
x1 = 0.0008948	0.368
x1 = 0.001084	0.463
x1 = 0.001244	0.516
x1 = 0.001427	0.588
x1 = 0.001581	0.634
x1 = 0.001768	0.707
x1 = 0.001923	0.76
x1 = 0.002048	0.787
x1 = 0.00219	0.841
x1 = 0.002294	0.878
x1 = 0.002423	0.917
x1 = 0.002448	0.92
x1 = 0.002543	0.96
x1 = 0.002708	1
x1 = 0.002791	1.03

COS(=O)(=O)[O-].Cn1cc[n+](C)c1 + COCCO
viscosity [mPa·s], 101 kPa
Conditions	x1 = 0.0007603	x1 = 0.001899	x1 = 0.003034	x1 = 0.004168	x1 = 0.005298	x1 = 0.006426
293.15 K	2.01	2.03	2.05	2.07	2.09	2.11
303.15 K	1.4	1.42	1.44	1.46	1.48	1.5
313.15 K	0.97	0.99	1.01	1.03	1.05	1.07

CCCCCCCCCCCC[N+](C)(C)Cc1ccccc1.[Cl-] + NCC(=O)NCC(=O)O + O
electrical conductivity [S/m], 101 kPa
Conditions	293.15 K	298.15 K	303.15 K	308.15 K	313.15 K
x2 = 0.0008945, x1 = 0.0002797	0.0793	0.0896	0.0999	0.111	0.123
x2 = 0.0008945, x1 = 0.0003	0.0824	0.0938	0.105	0.117	0.129
x2 = 0.0008945, x1 = 0.0003225	0.086	0.0984	0.109	0.123	0.135
x2 = 0.0008945, x1 = 0.0003431	0.0893	0.102	0.115	0.128	0.14
x2 = 0.0008946, x1 = 0.0001787	0.0623	0.069	0.0771	0.086	0.0944
x2 = 0.0008946, x1 = 0.000206	0.0676	0.0752	0.0839	0.093	0.103
x2 = 0.0008946, x1 = 0.0002337	0.0721	0.081	0.09	0.0999	0.111
x2 = 0.0008946, x1 = 0.0002576	0.0759	0.0855	0.0949	0.106	0.118
x2 = 0.0008947, x1 = 6.107e-05	0.0231	0.0264	0.0294	0.0327	0.036
x2 = 0.0008947, x1 = 8.317e-05	0.0312	0.0352	0.0392	0.0433	0.0476
x2 = 0.0008947, x1 = 0.0001051	0.0388	0.0437	0.0485	0.0537	0.059
x2 = 0.0008947, x1 = 0.0001274	0.0473	0.0523	0.0589	0.0647	0.0718
x2 = 0.0008947, x1 = 0.000152	0.0562	0.0624	0.0692	0.0771	0.0851
x2 = 0.001798, x1 = 0.0001447	0.056	0.0627	0.0696	0.0768	0.0846
x2 = 0.001798, x1 = 0.0001707	0.063	0.0704	0.0781	0.0865	0.0956
x2 = 0.001798, x1 = 0.0001977	0.0685	0.0766	0.0852	0.0946	0.105
x2 = 0.001798, x1 = 0.0002221	0.0729	0.0816	0.091	0.101	0.113
x2 = 0.001798, x1 = 0.0002443	0.0767	0.0861	0.0963	0.107	0.12
x2 = 0.001798, x1 = 0.0002649	0.0802	0.0902	0.101	0.112	0.126
x2 = 0.001798, x1 = 0.000284	0.0835	0.094	0.105	0.118	0.131
x2 = 0.001798, x1 = 0.0003015	0.0864	0.0974	0.109	0.122	0.137
x2 = 0.001798, x1 = 0.000321	0.0898	0.101	0.114	0.127	0.142
x2 = 0.001799, x1 = 5.376e-05	0.0229	0.0259	0.029	0.0323	0.0357
x2 = 0.001799, x1 = 7.599e-05	0.0313	0.0352	0.0394	0.0437	0.0482
x2 = 0.001799, x1 = 9.786e-05	0.0395	0.0443	0.0494	0.0546	0.0601
x2 = 0.001799, x1 = 0.0001201	0.0476	0.0533	0.0593	0.0655	0.0721

CCCC[N+](CCCC)(CCCC)CCCC.[Cl-] + CCC(=O)O
Conditions	viscosity [mPa·s]
298 K, 100 kPa, x1 = 0.5	3300
